Series [1] relates to genotype 1b (Con-1) HCV replicon. Put plainly: HCV replicon luciferase assay. The format is cell-based. The note with it: Hepatitis C virus, 72 h, Huh-7 cells with genotype 1b HCV replicon, Renilla luciferase, 3 days incubation. The method, then: Cell lines. The cell lines used to evaluate compounds consist of a human hepatocyte derived cell line (Huh-7) that constitutively expresses a genotype 1b (Con-1) HCV replicon or a genotype 1b (Con-1) HCV replicon with an asparagine replacing the cysteine at amino acid 316, or a genotype 2a (JFH-1) replicon, containing a Renilla luciferase reporter gene. These cells were maintained in Dulbecco's modified Eagle medium (DMEM) containing 10% FBS, 100 U/mL penicillin/streptomycin and 1.0 mg/mL G418.
HCV replicon luciferase assay. To evaluate compound efficacy, titrated compounds were transferred to sterile 384-well tissue culture treated plates, and the plates were seeded with HCV replicon cells (50 μL at a density of 2.4×10^3 cells/well) in DMEM containing 4% FBS (final DMSO concentration at 0.5%). After 3 days incubation at 37° C., cells were analyzed for Renilla Luciferase activity using the EnduRen substrate (Promega cat #E6485) according to the manufacturer's directions. Briefly, the EnduRen substrate was diluted in DMEM and then added to the plates to a final concentration of 7.5 μM. The plates were incubated for at least 1 h at 37° C. then read on a Viewlux Imager (PerkinElmer) using a luminescence program. The 50% effective concentration (EC50) was calculated using the four-parameter logistic formula noted above.
Compound EC50 data is expressed as A: <100 nM; B=100-1000 nM; C>1000 nM).
Background: In antiviral work, replicon cells carry a viral genome segment that copies itself.

In series [2] the test system is HCV. The settings on record: cited from earlier work.
In series [3] the test system is HCV. The settings on record: combination therapy; cited from earlier work.

Read-outs that look alike come from different tables or passages of the source.

A word on the EC50: it is the concentration needed to bring the measured effect to its halfway point. Regarding `CCN(C#N)c1cc2oc(-c3ccc(F)cc3)c(C(=O)NC)c2cc1-c1cccc(C(=O)NCC(C)(C)c2ccccc2)c1` [Compound 1001], the EC50 in series [1] (read-out: EC50 1b (class)) was < 0.1 µM.
As for `CCN(C#N)c1cc2oc(-c3ccc(F)cc3)c(C(=O)NC)c2cc1-c1cccc(C(=O)NCC(F)(F)C(F)(F)C(F)(F)C(F)(F)F)c1` [Compound 1002], the EC50 in series [1] (read-out: EC50 1b (class)) is < 0.1 µM; in series [1] (read-out: EC50 (μM) 1b), 0.047 µM.
As for `CCN(C#N)c1cc2oc(-c3ccc(F)cc3)c(C(=O)NC)c2cc1-c1ccc(OC)c(C(=O)NC(CF)(CF)CF)c1` [Compound 1003], in series [1] (read-out: EC50 1b (class)), the EC50 is < 0.1 µM.
`CCN(C#N)c1cc2oc(-c3ccc(F)cc3)c(C(=O)NC)c2cc1-c1cccc(C(=O)NC(C)(C)CC(C)O)c1` (stereo not shown) [Compound 1004]: the EC50 in series [1] (read-out: EC50 1b (class)) was < 0.1 µM; in series [1] (read-out: EC50 (μM) 1b), 0.013 µM.
Consider `CCN(C#N)c1cc2oc(-c3ccc(F)cc3)c(C(=O)NC)c2cc1-c1cccc(C(=O)NC(C)(C)CO)c1` [Compound 1005], for which, in series [1] (read-out: EC50 1b (class)), the EC50 was < 0.1 µM.
On the same count and under the same terms, next, `CCN(C#N)c1cc2oc(-c3ccc(F)cc3)c(C(=O)NC)c2cc1-c1cccc(C(=O)NC(C)(C)COC)c1` [Compound 1006]: < 0.1 µM.
Consider `CCN(C#N)c1cc2oc(-c3ccc(F)cc3)c(C(=O)NC)c2cc1-c1cccc(C(=O)NC(C)(C)C#N)c1` [Compound 1007], for which the EC50 in series [1] (read-out: EC50 1b (class)) is < 0.1 µM; in series [1] (read-out: EC50 (μM) 1b), 0.0041 µM.
On to `CCN(C#N)c1cc2oc(-c3ccc(F)cc3)c(C(=O)NC)c2cc1-c1ccc(OC)c(C(=O)NC2(C#N)CCCC2)c1` [Compound 1008], for which the EC50 in series [1] (read-out: EC50 1b (class)) was < 0.1 µM.
The same measure, in the same setting: next, `CCN(C#N)c1cc2oc(-c3ccc(F)cc3)c(C(=O)NC)c2cc1-c1ccc(F)c(C(=O)NC2(c3ncccn3)CC2)c1` [Compound 1009]: < 0.1 µM; `CCN(C#N)c1cc2oc(-c3ccc(F)cc3)c(C(=O)NC)c2cc1-c1cccc(C(=O)NC2(C(F)(F)F)CC2)c1` [Compound 1010]: < 0.1 µM.
For the molecule `CCN(C#N)c1cc2oc(-c3ccc(F)cc3)c(C(=O)NC)c2cc1-c1cccc(C(=O)NC(C)(CO)CO)c1` [Compound 1011], the EC50 in series [1] (read-out: EC50 1b (class)) lay within 0.1 to 1 µM.
Take `CCN(C#N)c1cc2oc(-c3ccc(F)cc3)c(C(=O)NC)c2cc1-c1cccc(C2=NC(C)(C)C(=O)O2)c1` [Compound 1012]: the values for the EC50 in series [1] (read-out: EC50 1b (class)) and in series [1] (read-out: EC50 (μM) 1b) were 0.1 to 1 µM and 0.36 µM, respectively.
In the case of `CCN(C#N)c1cc2oc(-c3ccc(F)cc3)c(C(=O)NC)c2cc1-c1cccc(C(=O)NC2(c3ncccn3)CC2)c1` [Compound 1013], in series [1] (read-out: EC50 1b (class)), the half-maximal effective concentration (EC50) is < 0.1 µM.
With `CCN(C#N)c1cc2oc(-c3ccc(F)cc3)c(C(=O)NC)c2cc1-c1ccc(OC)c(C(=O)NC(C)(C#N)C(C)C)c1` (stereo not shown) [Compound 1014], the EC50 in series [1] (read-out: EC50 1b (class)) was < 0.1 µM.
Regarding `CCN(C#N)c1cc2oc(-c3ccc(F)cc3)c(C(=O)NC)c2cc1-c1cccc(C(=O)NC2(C#N)CCC2)c1` [Compound 1015], the EC50 in series [1] (read-out: EC50 1b (class)) was < 0.1 µM.
As for `CCN(C#N)c1cc2oc(-c3ccc(F)cc3)c(C(=O)NC)c2cc1-c1cccc(C(=O)NC(C)(C)C(=O)OC)c1` [Compound 1016], in series [1] (read-out: EC50 1b (class)), the EC50 was < 0.1 µM.
Turning to `[2H]C([2H])([2H])C(NC(=O)c1cc(-c2cc3c(C(=O)NC)c(-c4ccc(F)cc4)oc3cc2N(C#N)CC)ccc1OC)(C([2H])([2H])[2H])C([2H])([2H])[2H]` [Compound 1017], the EC50 is < 0.1 µM in series [1] (read-out: EC50 1b (class)) and 0.0039 µM in series [1] (read-out: EC50 (μM) 1b).
Consider `CNC(=O)c1c(-c2ccc(F)cc2)oc2cc(N(CCO)S(C)(=O)=O)c(C3CC3)cc12` [HCV-796], for which the hepatic toxicity result with HCV [2] (extended dosing of the combination regimens) is on record as “hepatic toxicity observed during extended dosing of the combination regimens”. In addition, the “HCV RNA levels in patients” value in the series on HCV [2] (patients, single agent or combined with interferon and ribavirin) was “has shown an ability to reduce HCV RNA levels in patients”.
Turning to alpha-interferon and ribavirin, the “sustained efficacy in patients” value with HCV [3] is reported as 40%.

These data come from patent publication US9920036B2, “Cyanoamino (aza)benzofuran compounds for the treatment of hepatitis C” (BRISTOL-MYERS SQUIBB COMPANY, priority 2014, dated 2018).
